Laboratory results: ChEMBL document CHEMBL3885881, “DrugMatrix”

Organism: Rattus norvegicus
Assay: DrugMatrix - Regimen: Daily Repeat
Type: toxicity, organism-based, Sprague-Dawley
Parameters: regimen Daily Repeat, gender Male, age 6-8 weeks
Conditions: in vivo, iv, vehicle 100 % SALINE; for ABSOLUTE BASOPHIL / ABSOLUTE EOSINOPHIL / ABSOLUTE LYMPHOCYTE / ABSOLUTE MONOCYTE / ABSOLUTE SEGMENTED NEUTROPHIL / BASOPHIL / EOSINOPHIL / ERYTHROCYTE COUNT / HEMATOCRIT / HEMOGLOBIN / LEUKOCYTE COUNT / LYMPHOCYTE / MEAN CORPUSCULAR HEMOGLOBIN / MEAN CORPUSCULAR HEMOGLOBIN CONCENTRATION / MEAN CORPUSCULAR VOLUME / MONOCYTE / NEUTROPHIL / NUCLEATED RED BLOOD CELLS / PLATELET COUNT: tissue Blood; for ALANINE AMINOTRANSFERASE / ALBUMIN / ALKALINE PHOSPHATASE / ASPARTATE AMINOTRANSFERASE / BLOOD UREA NITROGEN / CARBON DIOXIDE / CHLORIDE / CHOLESTEROL / CREATINE PHOSPHOKINASE / CREATININE / GLUCOSE / LACTATE DEHYDROGENASE / LIPASE / PHOSPHORUS / POTASSIUM / SODIUM / TOTAL BILIRUBIN / TOTAL PROTEIN / URIC ACID: tissue Plasma
[1] = 2 mg/kg, 72 h, dose level High, time 3 day
[2] = 2 mg/kg, 120 h, dose level High, time 5 day
[3] = […], 72 h, dose 0.21 mg/Kg, dose level Low, time 3 day
[4] = […], 120 h, dose 0.21 mg/Kg, dose level Low, time 5 day

In the case of `O=C1c2c(O)ccc(O)c2C(=O)c2c(NCCNCCO)ccc(NCCNCCO)c21` [MITOXANTRONE], the “ABSOLUTE BASOPHIL” value [1] is reported as 0 CELLS/uL, the “ABSOLUTE EOSINOPHIL” value [1] is reported as 0 CELLS/uL and the “ABSOLUTE LYMPHOCYTE” value [1] is reported as 1529.67 CELLS/uL. For the same molecule, the “ABSOLUTE MONOCYTE” value [1] was 0 CELLS/uL, the “ABSOLUTE SEGMENTED NEUTROPHIL” value [1] was 137 CELLS/uL and the BASOPHIL [1] was 0%. The EOSINOPHIL [1] was 0%, the “ERYTHROCYTE COUNT” value [1] was 5.38 x10E6/uL and the HEMATOCRIT [1] was 34.37%. For the same molecule, the HEMOGLOBIN [1] was 12.83 G/DL, the “LEUKOCYTE COUNT” value [1] was 1.67 x10E3/uL and the LYMPHOCYTE [1] was 91.67%. The “MEAN CORPUSCULAR HEMOGLOBIN” value [1] was 23.9 pg, the “MEAN CORPUSCULAR HEMOGLOBIN CONCENTRATION” value [1] was 37.37 G/DL and the “MEAN CORPUSCULAR VOLUME” value [1] was 63.87 fL. The MONOCYTE [1] was 0%, the NEUTROPHIL [1] was 8.33% and the “NUCLEATED RED BLOOD CELLS” value [1] was 0 /100WBC. For the same molecule, the “PLATELET COUNT” value [1] was 1484 x10E3/uL, the “ALANINE AMINOTRANSFERASE” value [1] was 42.67 u/L and the ALBUMIN [1] was 4.43 G/DL. The “ALKALINE PHOSPHATASE” value [1] was 444 u/L, the “ASPARTATE AMINOTRANSFERASE” value [1] was 64 u/L and the “BLOOD UREA NITROGEN” value [1] was 15.67 mg/dL. For the same molecule, the “CARBON DIOXIDE” value [1] was 23 mmol/L, the CHLORIDE [1] was 104.67 MEQ/L and the CHOLESTEROL [1] was 79.33 mg/dL. For the same molecule, the “CREATINE PHOSPHOKINASE” value [1] was 220.67 u/L, the CREATININE [1] was 0.17 mg/dL and the GLUCOSE [1] was 180.33 mg/dL. For the same molecule, the “LACTATE DEHYDROGENASE” value [1] was 145 u/L, the LIPASE [1] was 10 u/L and the PHOSPHORUS [1] was 12.2 mg/dL. The POTASSIUM [1] was 5.98 MEQ/L, the SODIUM [1] was 146.2 MEQ/L and the “TOTAL BILIRUBIN” value [1] was 0.13 mg/dL. For the same molecule, the “TOTAL PROTEIN” value [1] was 6.1 G/DL, the “URIC ACID” value [1] was 2.67 mg/dL and the “ABSOLUTE BASOPHIL” value [2] was 0 CELLS/uL. For the same molecule, the “ABSOLUTE EOSINOPHIL” value [2] was 0 CELLS/uL, the “ABSOLUTE LYMPHOCYTE” value [2] was 1225 CELLS/uL and the “ABSOLUTE MONOCYTE” value [2] was 0 CELLS/uL. For the same molecule, the “ABSOLUTE SEGMENTED NEUTROPHIL” value [2] was 8.33 CELLS/uL, the BASOPHIL [2] was 0% and the EOSINOPHIL [2] was 0%. For the same molecule, the “ERYTHROCYTE COUNT” value [2] was 5.82 x10E6/uL, the HEMATOCRIT [2] was 35.23% and the HEMOGLOBIN [2] was 13.37 G/DL. The “LEUKOCYTE COUNT” value [2] was 1.23 x10E3/uL, the LYMPHOCYTE [2] was 99.33% and the “MEAN CORPUSCULAR HEMOGLOBIN” value [2] was 23.07 pg. For the same molecule, the “MEAN CORPUSCULAR HEMOGLOBIN CONCENTRATION” value [2] was 37.97 G/DL, the “MEAN CORPUSCULAR VOLUME” value [2] was 60.73 fL and the MONOCYTE [2] was 0%. The NEUTROPHIL [2] was 0.67%, the “NUCLEATED RED BLOOD CELLS” value [2] was 0 /100WBC and the “PLATELET COUNT” value [2] was 946 x10E3/uL. For the same molecule, the “ALANINE AMINOTRANSFERASE” value [2] was 32.33 u/L, the ALBUMIN [2] was 3.37 G/DL and the “ALKALINE PHOSPHATASE” value [2] was 255.33 u/L. The “ASPARTATE AMINOTRANSFERASE” value [2] was 47.67 u/L, the “BLOOD UREA NITROGEN” value [2] was 15.67 mg/dL and the “CARBON DIOXIDE” value [2] was 29.33 mmol/L. For the same molecule, the CHLORIDE [2] was 105 MEQ/L, the CHOLESTEROL [2] was 107 mg/dL and the “CREATINE PHOSPHOKINASE” value [2] was 271.67 u/L. For the same molecule, the CREATININE [2] was 0.12 mg/dL, the GLUCOSE [2] was 142.33 mg/dL and the “LACTATE DEHYDROGENASE” value [2] was 141.33 u/L. For the same molecule, the LIPASE [2] was 9.67 u/L, the PHOSPHORUS [2] was 11.97 mg/dL and the POTASSIUM [2] was 6.74 MEQ/L. For the same molecule, the SODIUM [2] was 146.57 MEQ/L, the “TOTAL BILIRUBIN” value [2] was 0.1 mg/dL and the “TOTAL PROTEIN” value [2] was 5.2 G/DL. For the same molecule, the “URIC ACID” value [2] was 1.33 mg/dL, the “ABSOLUTE BASOPHIL” value [3] was 0 CELLS/uL and the “ABSOLUTE EOSINOPHIL” value [3] was 34.67 CELLS/uL. The “ABSOLUTE LYMPHOCYTE” value [3] was 7414.67 CELLS/uL, the “ABSOLUTE MONOCYTE” value [3] was 92.67 CELLS/uL and the “ABSOLUTE SEGMENTED NEUTROPHIL” value [3] was 224.67 CELLS/uL. For the same molecule, the BASOPHIL [3] was 0%, the EOSINOPHIL [3] was 0.33% and the “ERYTHROCYTE COUNT” value [3] was 5.52 x10E6/uL. The HEMATOCRIT [3] was 34.13%, the HEMOGLOBIN [3] was 12.87 G/DL and the “LEUKOCYTE COUNT” value [3] was 7.77 x10E3/uL. For the same molecule, the LYMPHOCYTE [3] was 96%, the “MEAN CORPUSCULAR HEMOGLOBIN” value [3] was 23.37 pg and the “MEAN CORPUSCULAR HEMOGLOBIN CONCENTRATION” value [3] was 37.73 G/DL. The “MEAN CORPUSCULAR VOLUME” value [3] was 61.87 fL, the MONOCYTE [3] was 1% and the NEUTROPHIL [3] was 2.67%. For the same molecule, the “NUCLEATED RED BLOOD CELLS” value [3] was 0 /100WBC, the “PLATELET COUNT” value [3] was 1537 x10E3/uL and the “ALANINE AMINOTRANSFERASE” value [3] was 46 u/L. For the same molecule, the ALBUMIN [3] was 4.5 G/DL, the “ALKALINE PHOSPHATASE” value [3] was 370.67 u/L and the “ASPARTATE AMINOTRANSFERASE” value [3] was 75 u/L. The “BLOOD UREA NITROGEN” value [3] was 14.33 mg/dL, the “CARBON DIOXIDE” value [3] was 24 mmol/L and the CHLORIDE [3] was 103.33 MEQ/L. For the same molecule, the CHOLESTEROL [3] was 77.33 mg/dL, the “CREATINE PHOSPHOKINASE” value [3] was 192 u/L and the CREATININE [3] was 0.24 mg/dL. For the same molecule, the GLUCOSE [3] was 163 mg/dL, the “LACTATE DEHYDROGENASE” value [3] was 207.67 u/L and the LIPASE [3] was 9.67 u/L. For the same molecule, the PHOSPHORUS [3] was 13.57 mg/dL, the POTASSIUM [3] was 7.01 MEQ/L and the SODIUM [3] was 145.1 MEQ/L. The “TOTAL BILIRUBIN” value [3] was 0.23 mg/dL, the “TOTAL PROTEIN” value [3] was 6.23 G/DL and the “URIC ACID” value [3] was 2.6 mg/dL. For the same molecule, the “ABSOLUTE BASOPHIL” value [4] was 0 CELLS/uL, the “ABSOLUTE EOSINOPHIL” value [4] was 26.67 CELLS/uL and the “ABSOLUTE LYMPHOCYTE” value [4] was 5180 CELLS/uL. The “ABSOLUTE MONOCYTE” value [4] was 42.67 CELLS/uL, the “ABSOLUTE SEGMENTED NEUTROPHIL” value [4] was 217.33 CELLS/uL and the BASOPHIL [4] was 0%. The EOSINOPHIL [4] was 0.67%, the “ERYTHROCYTE COUNT” value [4] was 5.12 x10E6/uL and the HEMATOCRIT [4] was 32.83%. For the same molecule, the HEMOGLOBIN [4] was 12.5 G/DL, the “LEUKOCYTE COUNT” value [4] was 5.47 x10E3/uL and the LYMPHOCYTE [4] was 94.33%. The “MEAN CORPUSCULAR HEMOGLOBIN” value [4] was 24.47 pg, the “MEAN CORPUSCULAR HEMOGLOBIN CONCENTRATION” value [4] was 38.1 G/DL and the “MEAN CORPUSCULAR VOLUME” value [4] was 64.27 fL. For the same molecule, the MONOCYTE [4] was 1%, the NEUTROPHIL [4] was 4% and the “NUCLEATED RED BLOOD CELLS” value [4] was 0.33 /100WBC. For the same molecule, the “PLATELET COUNT” value [4] was 1671.33 x10E3/uL, the “ALANINE AMINOTRANSFERASE” value [4] was 42.33 u/L and the ALBUMIN [4] was 4.27 G/DL. For the same molecule, the “ALKALINE PHOSPHATASE” value [4] was 328.67 u/L, the “ASPARTATE AMINOTRANSFERASE” value [4] was 67 u/L and the “BLOOD UREA NITROGEN” value [4] was 15 mg/dL. For the same molecule, the “CARBON DIOXIDE” value [4] was 24.33 mmol/L, the CHLORIDE [4] was 107.67 MEQ/L and the CHOLESTEROL [4] was 77.67 mg/dL. The “CREATINE PHOSPHOKINASE” value [4] was 193.33 u/L, the CREATININE [4] was 0.25 mg/dL and the GLUCOSE [4] was 163.33 mg/dL. For the same molecule, the “LACTATE DEHYDROGENASE” value [4] was 101 u/L, the LIPASE [4] was 12 u/L and the PHOSPHORUS [4] was 11.77 mg/dL. For the same molecule, the POTASSIUM [4] was 6.53 MEQ/L, the SODIUM [4] was 146.7 MEQ/L and the “TOTAL BILIRUBIN” value [4] was 0.2 mg/dL. The “TOTAL PROTEIN” value [4] was 5.87 G/DL and the “URIC ACID” value [4] was 1.8 mg/dL.
